These results are taken from paper PMC3929365, “Benzimidazoisoquinolines: A New Class of Rapidly Metabolized Aryl Hydrocarbon Receptor (AhR) Ligands that Induce AhR-Dependent Tregs and Prevent Murine Graft-Versus-Host Disease” (PLoS ONE, 2014).

The structures appear in SMILES notation.

The nature of this series: Serum liver chemistry profile. The note with it: 10 mg/kg/day i.p., 2 days. It counts as in vivo, B6D2F1 mice. The method, then:
Supplementary file pone.0088726.s004.docx: Table S1 Serum liver chemistry profile. B6D2F1 mice were give 10 mg/kg/day of 10-Cl-BBQ or vehicle i.p. After 2 days serum was collected and analyzed. n = 5 mice per treatment, average values are shown(± standard deviation). ALT – Alanine transaminase, SGPT – serum glutamic pyruvate transaminase. (DOCX) Click here for additional data file.
Table S1. Serum liver chemistry profile. B6D2F1 mice were give 10 mg/kg/day of 10-Cl-BBQ or vehicle i.p. After 2 days serum was collected and analyzed. n = 5 mice per treatment, average values are shown(± standard deviation). ALT – Alanine transaminase, SGPT – serum glutamic pyruvate transaminase.

Consider `O=c1c2cccc3cccc(c32)c2nc3ccc(Cl)cc3n12` [10-Cl-BBQ, 10-chloro-7H-benzimidazo[2,1-a]benzo[de]isoquinolin-7-one], for which the “acute hepatic toxicity in mice” value is “nor did it induce acute hepatic toxicity”. In addition, for the setting “serum, mean (± SD), n = 5”, the “ALT (SGPT)” value is recorded as 34.4 (± 10.4) U/l, the Albumin is on record as 3.3 (± 0.1) g/dl, the “Alkaline Phosphatase” value was 51.4 (± 8.3) U/l and the Bilirubin is 0.12 (± 0) mg/dl. For the same compound, under “serum, mean (± SD), n = 5”, the “Blood Urea Nitrogen” value is given as 10.2 (± 1.5) mg/dl, the Cholesterol is recorded as 119.2 (± 10.4) mg/dl and the Glucose is listed as 201.2 (± 10.4) mg/dl. For the same compound, where the note is “serum, n = 5”, the “Gamma Glutamyl Transferase” value turned out to be 0 U/l.
